Experiments:
RAW 264.7 cells [1] = assay: In vitro expression of firefly-luciferase, RAW 264.7; format: cell-based; conditions: cirRNA (SEQ ID NO: 1) LNPs; firefly-luciferase luminescence; RAW 264.7 cells
Summary of the method: (§1)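 Cells were transfected with firefly-luciferase-encoding RNA-LNPs at 100 ng/mL. After 72 hours they were washed and lysed, and luciferase activity in the lysates was read by luminometry.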

[2] = RNA encapsulation efficacy by Quant-IT Ribogreen kit; format: physicochemical; conditions: LNP with cirRNA (SEQ ID NO: 1)
Summary of the method: (§2)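 LNPs of ionizable lipid/DSPC/cholesterol/DMG-PEG 2000 (50:10:38.5:1.5) made by microfluidic mixing of luciferase circRNA or mRNA in pH 4.5 acetate with lipids in ethanol (3:1, 12 ml/min), ionizable lipid:nucleotide 15 or 6, then dialyzed against PBS. Size, PDI (DLS) and zeta potential on Zetasizer; encapsulation by Ribogreen ± Triton X-100.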

Hep G2 cells [3] = assay: In vitro toxicity (CellTiter-Glo cell viability), Hep G2; format: cell-based; conditions: cirRNA (SEQ ID NO: 1) LNPs; Hep G2 cells;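 note: percent of untreated cells luminescence signal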
Summary of the method: (§3)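 Cells were transfected with RNA-LNPs at 1 μg/mL and, 72 hours later, viability was measured by CellTiter-Glo luminescence. Values are cell viability calculated from the luminescence signal.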

[4] = LNP size and polydispersity index (PDI) by dynamic light scattering; format: physicochemical; conditions: LNP with cirRNA (SEQ ID NO: 1); for Size: in nm (unit assumed)
Summary of the method: as §2

RAW 264.7 cells [5] = assay: In vitro toxicity (CellTiter-Glo cell viability), RAW 264.7; format: cell-based; conditions: cirRNA (SEQ ID NO: 1) LNPs; RAW 264.7 cells;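 note: percent of untreated cells luminescence signal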
Summary of the method: as §3

Hep G2 cells [6] = assay: In vitro expression of firefly-luciferase, Hep G2; format: cell-based; conditions: cirRNA (SEQ ID NO: 1) LNPs; firefly-luciferase luminescence; Hep G2 cells
Summary of the method: as §1

BALB/C mice = assay: In vivo expression, whole-body luminescence (IVIS); conditions: cirRNA (SEQ ID NO: 1) LNPs, BALB/C mice
Description: 6-8 week old, female BALB/C mice were injected with 0.05 mg*kg-1 of RNA-LNPs encoding for firefly-luciferase by intravenous injection. At 6 hours post injection, animals were intraperitoneally injected with 15 mg/ml of Luciferin substrate and whole-body luminescence was determined by a bioluminescent in vivo imaging system (IVIS).

[7] = LNP zeta potential (Zetasizer); format: physicochemical; conditions: LNP with cirRNA (SEQ ID NO: 1)
Summary of the method: as §2

| Encapsulation Efficiency % [2] | PDI [4] | Size [4] | Zeta (mV) [7] | SMILES | In vitro Expression RAW (RAW 264.7 cells [1]) | In vitro Viability HepG2 (Hep G2 cells [3]) | In vitro Viability RAW (RAW 264.7 cells [5]) | In vitro Expression HepG2 (Hep G2 cells [6]) | In vivo Expression (Whole Body) (BALB/C mice) |
| --- | --- | --- | --- | --- | --- | --- | --- | --- | --- |
| 88% | 0.02962 | 71.14 | 9.196 mV | CCCCCCCCC(CCCCCCCC)OC(=O)CCCCCCCN(CCCCCCCCOC(=O)C(CCCCCC)CCCCCCCC)CCOC(=O)NCCN1CCCCC1 (stereo not drawn) [Lipid 149, 8-((8-(heptadecan-9-yloxy)-8-oxooctyl)(2-(((2-(piperidin-1-yl)ethyl)carbamoyl)oxy)ethyl)amino)octyl 2-hexyldecanoate] | 1.91E+04 | 123% | 100% | 2.08E+05 | 6.07E+07 |
| 79% | 0.05565 | 91.37 | 17.84 mV | CCCCCCCCCCCOC(=O)CCCCCN(CCCCCC(=O)OCCCCCCCCCCC)CCOC(=O)NCCN1CCCCC1 [Lipid 150, diundecyl 6,6′-((2-(((2-(piperidin-1-yl)ethyl)carbamoyl)oxy)ethyl)azanediyl)dihexanoate] | 6.81E+02 | 114% | 104% | 1.44E+04 | 7.27E+05 |
| 89% | 0.1693 | 98.37 | 20.18 mV | CCCCCCCCCCCOC(=O)CCCCCN(CCCCCC(=O)OCCCCCCCCCCC)CCOC(=O)NCCN1CCCC1 [Lipid 151, diundecyl 6,6′-((2-(((2-(pyrrolidin-1-yl)ethyl)carbamoyl)oxy)ethyl)azanediyl)dihexanoate] | 3.27E+01 | 110% | 99% | 8.79E+03 | 1.18E+05 |
| 89% | 0.09308 | 71.11 | 18.95 mV | CCCCCCCCCCCOC(=O)CCCCCN(CCCCCC(=O)OCCCCCCCCCCC)CCOC(=O)NCCCN(C)C [Lipid 153] | 2.44E+02 | 120% | 104% | 1.95E+04 | 1.02E+05 |
| 90% | 0.1144 | 75.25 | 25.23 mV | CCCCCCCCCCCOC(=O)CCCCCN(CCCCCC(=O)OCCCCCCCCCCC)CCOC(=O)NCCN(C)C [Lipid 154, undecyl 2-methyl-6-oxo-10-(6-oxo-6-(undecyloxy)hexyl)-7-oxa-2,5,10-triazahexadecan-16-oate] | 2.36E+03 | 106% | 101% | 2.59E+05 | 1.01E+05 |
| 76% | 0.1182 | 92.39 | 15.16 mV | CCCCCCCCCCCOC(=O)CCCCCN(CCCCCC(=O)OCCCCCCCCCCC)CCOC(=O)NCc1ncc[nH]1 [Lipid 155, diundecyl 6,6′-((2-((((1H-imidazol-2-yl)methyl)carbamoyl)oxy)ethyl)azanediyl)dihexanoate] | 5.98E+02 | 111% | 101% | 2.72E+04 | 5.77E+07 |
| 72% | 0.2315 | 97.72 | 6.058 mV | CCCCCCCCCCCOC(=O)CCCCCN(CCCCCCCC(=O)OC(CCCCCCCC)CCCCCCCC)CCOC(=O)NCCN(C)C [Lipid 158, heptadecan-9-yl 2-methyl-6-oxo-10-(6-oxo-6-(undecyloxy)hexyl)-7-oxa-2,5,10-triazaoctadecan-18-oate] | 1.37E+04 | 64% | 0% | 1.24E+06 | 1.62E+07 |
| 84% | 0.1754 | 57.86 | −5.631 mV | CCCCCCCCCCCOC(=O)CCCCCN(CCCCCCCC(=O)OC(CCCCCCCC)CCCCCCCC)CCOC(=O)NCc1ncc[nH]1 [Lipid 159, heptadecan-9-yl 8-((2-((((1H-imidazol-2-yl)methyl)carbamoyl)oxy)ethyl)(6-oxo-6-(undecyloxy)hexyl)amino)octanoate] | 4.41E+04 | 92% | 90% | 8.41E+05 | 1.95E+07 |
| 75% | 0.08727 | 58.97 | −10.23 mV | CCCCCCCCCCCOC(=O)CCCCCN(CCCCCCCC(=O)OC(CCCCCCCC)CCCCCCCC)CCOC(=O)NCCN1CCOCC1 [Lipid 161] | 6.74E+03 | 95% | 81% | 4.62E+04 | 1.88E+07 |
| 76% | 0.3875 | 86.23 | 14.91 mV | CCCCCCCCCCCOC(=O)CCCCCN(CCCCCCCC(=O)OC(CCCCCCCC)CCCCCCCC)CCOC(=O)NCCCN(C)C [Lipid 162] | 3.76E+03 | 83% | 86% | 4.27E+05 | 1.01E+06 |
| 79% | 0.1586 | 61.87 | −3.271 mV | CCCCCCCCCCCOC(=O)CCCCCN(CCCCCCCC(=O)OC(CCCCCCCC)CCCCCCCC)CCOC(=O)NCCCn1ccnc1 [Lipid 163] | 3.32E+03 | 92% | 88% | 5.77E+04 | 7.96E+06 |
| 75% | 0.2218 | 76.41 | 3.42 mV | CCCCCCCCCCCOC(=O)CCCCCN(CCCCCCCC(=O)OC(CCCCCCCC)CCCCCCCC)CCOC(=O)NCCN1CCCC1 [Lipid 164] | 9.56E+04 | 74% | 86% | 3.92E+06 | 7.11E+07 |
| 78% | 0.2013 | 71.24 | 4.157 mV | CCCCCCCCCCC(CCCCCCCC)COC(=O)CCCCCN(CCCCCC(=O)OCC(CCCCCCCC)CCCCCCCCCC)CCOC(=O)NCCCN(C)C (stereo not drawn) [Lipid 166] | 1.48E+06 | 22% | 12% | 2.17E+07 | 6.43E+05 |
| 82% | 0.0668 | 61.26 | −3.412 mV | CCCCCCCCCCC(CCCCCCCC)COC(=O)CCCCCN(CCCCCC(=O)OCC(CCCCCCCC)CCCCCCCCCC)CCOC(=O)NCCCn1ccnc1 (stereo not drawn) [Lipid 167] | 2.79E+04 | 102% | 90% | 8.85E+04 | 9.22E+06 |
| 77% | 0.1297 | 55.9 | −5.824 mV | CCCCCCCCCCC(CCCCCCCC)COC(=O)CCCCCN(CCCCCC(=O)OCC(CCCCCCCC)CCCCCCCCCC)CCOC(=O)NCc1ncc[nH]1 (stereo not drawn) [Lipid 171] | 2.44E+05 | 97% | 88% | 3.04E+05 | 5.09E+07 |
| 83% | 0.2521 | 67.53 | 1.36 mV | CCCCCCCCCCC(CCCCCCCC)COC(=O)CCCCCN(CCCCCC(=O)OCC(CCCCCCCC)CCCCCCCCCC)CCOC(=O)NCCCN(CC)CC (stereo not drawn) [Lipid 172] | 5.83E+05 | 41% | 90% | 1.12E+07 | 2.14E+07 |
| 82% | 0.3423 | 73.65 | −0.5735 mV | CCCCCCCCCCC(CCCCCCCC)COC(=O)CCCCCN(CCCCCC(=O)OCC(CCCCCCCC)CCCCCCCCCC)CCOC(=O)NCCN1CCN(C)CC1 (stereo not drawn) [Lipid 173] | 9.48E+05 | 57% | 90% | 3.32E+07 | 3.45E+07 |

Source: patent publication US12691070B2, “Cationic lipids and preparation method thereof” (RiboX Therapeutics HK Limited, priority 2023, dated 2026)
